Source: patent US20250042916A1 (ACONCAGUA BIO, INC., priority 2023, published 2025)

Assays:
Type in all cases: cell-based
[1] = target: human calcitonin receptor (CTR) and RAMP3 (AMY3) in COS-7 cells (Homo sapiens, UniProt O60896+P30988); test: Amylin Receptor cAMP Assay II; conditions: value marked **: Amylin Receptor cAMP Assay II; COS-7/AMY3 cells; read-out: Amylin Receptor cAMP Stimulation Activity: EC50
Description: Amylin Receptor cAMP Assay II
AMYRs are heterodimers of the class B calcitonin (CT) G-protein-coupled receptor (CTR) and receptor activity-modifying proteins (RAMPs). All three RAMPs can interact with the CTR and form AMY1, AMY2, AMY3 with RAMP1, RAMP2 and RAMP3, respectively. Like other class B1 GPCRs, the CT receptor family is canonically coupled to Gs-mediated cAMP production, and measurement of cAMP accumulation has been the primary assay used to determine peptide selectivity and potency.
To optimize functional activity directed toward Gas coupling, COS-7 cells were stably transfected with human calcitonin receptor (CTR) and RAMP3, simultaneously. 100× concentration of compound working solutions were prepared with 4-fold serial dilution in 384-well Echo LDV plate (Labcyte, Cat #LP-0200-BC). 200 nL/well 100× concentration of compound working solutions were moved to 384-well white microplate (Perkin Elmer, Cat #6007680) using Labcyte ECHO550. […]
After incubation, the cAMP assay signal was generated using cAMP dynamic 2 kit (Revvity, Cat #62AM4PEC). […] The samples were then incubated at room temperature for 1 hour protected from light. the fluorescence was read at 665 and 615 nm with Reader PerkinElmer EnVision 2105.

[2] = target: T1, human calcitonin receptor (CTR) in COS-7 cells (Homo sapiens, UniProt P30988); test: Calcitonin Receptor (CTR) cAMP Assay; conditions: COS7-human CTR Clone #2 cells; read-out: Calcitonin Receptor cAMP Stimulation Activity: EC50
T1 construct: expressed in transfected cells; host or cells: COS-7 (COS7-human CTR Clone #2)
T1 sequence (P30988 25-474): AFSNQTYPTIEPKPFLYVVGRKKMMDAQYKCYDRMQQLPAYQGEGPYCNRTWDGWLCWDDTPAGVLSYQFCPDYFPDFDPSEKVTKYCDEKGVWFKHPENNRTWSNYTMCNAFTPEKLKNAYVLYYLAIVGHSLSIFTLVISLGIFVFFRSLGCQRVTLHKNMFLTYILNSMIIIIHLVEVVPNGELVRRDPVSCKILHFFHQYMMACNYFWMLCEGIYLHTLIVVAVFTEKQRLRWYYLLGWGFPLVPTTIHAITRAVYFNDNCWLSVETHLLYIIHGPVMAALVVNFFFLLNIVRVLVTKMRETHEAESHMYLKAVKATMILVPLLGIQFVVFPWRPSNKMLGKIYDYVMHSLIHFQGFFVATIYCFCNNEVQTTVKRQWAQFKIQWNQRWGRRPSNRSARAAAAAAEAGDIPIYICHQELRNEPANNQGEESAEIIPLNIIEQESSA
Description: Calcitonin Receptor (CTR) cAMP Assay
The calcitonin receptor (CTR) belongs to the subfamily of GPCRs known as the secretin or ‘B’ family of GPCRs. Like other class B1 GPCRs, the CT receptor family is canonically coupled to Gs-mediated cAMP production, and measurement of cAMP accumulation has been the primary assay used to determine peptide selectivity and potency.
(§1) To optimize functional activity directed toward Gas coupling, COS-7 cells were stably transfected with human calcitonin receptor (CTR) to create COS7-human CTR Clone #2 stable cell line. 100× concentration of compound working solutions were prepared with 4-fold serial dilution in 384-well Echo LDV plate (Labcyte, Cat #LP-0200-BC). 200 nL/well 100× concentration of compound working solutions were moved to 384-well white microplate (Perkin Elmer, Cat #6007680) using Labcyte ECHO550. 1×10^5 cells/mL COS7-human CTR Clone #2 cell suspensions prepared with assay buffer [HBSS containing 20 mM HEPES (Gibco, Cat #15630-080), 0.5 mM IBMX (Sigma, Cat #15879) and 0.1% Casein (Sigma, Cat #C4765)], 20 μL cell suspensions were added to each well of previous generated assay plate which already contains 200 nL compound at 100× concentration using ThermoFisher Multidrop Combi (2000 cells/well). Seal the plate and incubate at 37° C. with 5% CO2 for 30 min.
(§2) After incubation, the cAMP assay signal was generated using cAMP dynamic 2 kit (Revvity, Cat #62AM4PEC). 10 μL cAMP-d2 working solution was added to each well, followed by 10 L Anti-cAMP antibody-cryptate working solution which was added to each well using CERTUS FLEX LIQUID DISPENSER. The samples were then incubated at room temperature for 1 hour protected from light. the fluorescence was read at 665 and 615 nm with Reader PerkinElmer EnVision 2105.

[3] = target: Amylin Receptor (Homo sapiens, UniProt O60896+P30988); test: Amylin Receptor cAMP stimulation, assay version (I or II) not marked; conditions: values without footnote mark; assay I or II not stated
Description: To optimize functional activity directed toward Gas coupling, COS-7 cells were stably transfected with human calcitonin receptor (CTR) and RAMP3, simultaneously. 100× concentration of compound working solutions were prepared (Agilent Technologies Bravo) with 4-fold serial dilution in 384-well Echo LDV plate (Labcyte, Cat #LP-0200). 100 nL/well 100× concentration of compound working solutions were moved to 384-well white low volume plate (Greiner, Cat #784075) using Labcyte ECHO550. 1×10^5 cells/mL COS-7/CTR or COS-7/AMY3 (HD Biosciences) cell suspensions prepared with assay buffer [DPBS containing 0.5 mM IBMX (Sigma, Cat #15879) and 0.1% BSA (GENVIEW, Cat #FA016-100 g)], 10 μL cell suspensions were added to each well of previous generated assay plate which already contains 100 nL compound at 100× concentration using ThermoFisher Multidrop Combi (1000 cells/well). Seal the plate and incubate at 37° C. with 5% CO2 for 30 min.
as §2, with “Hi-range Kit (Cisbio). 5” for “dynamic 2 kit (Revvity, Cat #62AM4PEC). 10”, “5 μL” for “10 L”, “ThermoFisher Multidrop Combi.” for “CERTUS FLEX LIQUID DISPENSER.”, “EnVision.” for “EnVision 2105.”
as §1, with “and RAMP3, simultaneously.” for “to create COS7-human CTR Clone #2 stable cell line.”, “COS-7/AMY3” for “COS7-human CTR Clone #2”
as §2, with “10 μL” for “10 L”

Sequence of Amylin Receptor (O60896 24-148, one chain of several): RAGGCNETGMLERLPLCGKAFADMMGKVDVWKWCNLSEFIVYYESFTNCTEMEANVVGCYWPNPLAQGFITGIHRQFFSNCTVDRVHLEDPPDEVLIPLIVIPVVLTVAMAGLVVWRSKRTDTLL
Sequence of human calcitonin receptor (CTR) and RAMP3 (AMY3) in COS-7 cells (O60896 24-148, one chain of several): as above

| EC50 [1] | EC50 [2] | EC50 [3] | SMILES |
| --- | --- | --- | --- |
| 66 nM | 6 nM | – | Cc1nnc(-c2c(CCC3CCN(C(=O)OCc4ccccc4)CC3)nc(CC(C)C)c(C(N)=O)c2-c2ccc(C(=O)NCc3ccc(F)c(F)c3)s2)o1 [Compound 205, Benzyl 4-[2-[5-carbamoyl-4-[5-[(3,4-difluorophenyl)methylcarbamoyl]-2-thienyl]-6-isobutyl-3-(5-methyl-1,3,4-oxadiazol-2-yl)-2-pyridyl]ethyl]piperidine-1-carboxylate] |
| – | 0.581 nM | 18.9 nM | COc1cccc2c1CC[C@H]2Nc1nccc2cc(-c3c(C(N)=O)c(CC(C)C)nc(CCC4CCOCC4)c3-c3nnc(C)o3)sc12 [Compound 208, 4-{7-[(R)-4-methoxy-1-indanylamino]-1-thia-6-aza-2-indenyl}-2-isobutyl-5-(5-methyl-1,3,4-oxadiazol-2-yl)-6-[2-(tetrahydro-2H-pyran-4-yl)ethyl]nicotinamide] |
| – | – | 96.9 nM | CCc1nc(CC(C)C)c(C(N)=O)c(-c2cc3ccnc(N[C@@H]4CCc5ccc(F)cc54)c3s2)c1-c1nnc(C)o1 [Compound 209, 4-{7-[(R)-6-fluoro-1-indanylamino]-1-thia-6-aza-2-indenyl}-6-ethyl-2-isobutyl-5-(5-methyl-1,3,4-oxadiazol-2-yl)nicotinamide] |
| – | – | 546 nM | Cc1nnc(-c2c(COc3ccc(F)cc3)nc(CC(C)C)c(C(N)=O)c2-c2ccc(C(=O)N[C@@H]3CCc4ccccc43)s2)o1 [Compound 210, N—[(R)-1-indanyl]-5-{3-carbamoyl-6-[(p-fluorophenoxy)methyl]-2-isobutyl-5-(5-methyl-1,3,4-oxadiazol-2-yl)-4-pyridyl}-2-thenamide] |
